Data: patent publication US7858637B2, “Administration of TLR7 ligands and prodrugs thereof for treatment of infection by hepatitis C virus” (priority 2003, dated 2010)
“Also recorded” adds a separate entry of the source.

What was measured:
interferon alpha = assay: Interferon alpha plasma concentrations in mice; assay type: in vivo, mouse; conditions: for Mu-IFN-α plasma concentration, individual value / Mu-IFN-α plasma concentration, mean: mice, two oral 50 mg/kg doses 4 hours apart
Source text: Not only can one measure the plasma concentrations of isatoribine arising from oral administration of the said prodrug(s) but also the extensive immunological research conducted in the mouse has provided reagents suitable for measuring the levels of interferon alpha, a cytokine of interest reflecting one of the desired biologic activities of isatoribine.

[1] = Toxicology studies, GI tolerance in beagle dogs; assay type: in vivo, beagle dog; conditions: dog, in vivo, iv
Source text: We compared in the dog the oral toxicology of 21 and 24, and the intravenous toxicology of 21. We observed that the oral toxicology of 24 was much more like intravenous 21 than it was like oral 21.

[2] = oral dosing, data of Tables 15, 16 and 17

SMILES: Nc1nc2c(sc(=O)n2[C@@H]2O[C@H](CO)[C@@H](O)[C@H]2O)c(=O)[nH]1 [Compound 21, 7-thia-8-oxoguanosine]
- Mu-IFN-α plasma concentration, individual value (interferon alpha; time 1.00 h (first dose)): BQL^25 pg/mL
- Mu-IFN-α plasma concentration, mean (interferon alpha; time 1.00 h (first dose)): 0.00 pg/mL
- Mu-IFN-α plasma concentration, mean (interferon alpha; time 1.50 h (first dose)): 0.00 pg/mL
- Mu-IFN-α plasma concentration, individual value (interferon alpha; time 1.50 h (first dose), listed as Isatoribine, 50 mg/kg): BQL^100 pg/mL; also recorded: BQL^25 pg/mL
- Mu-IFN-α plasma concentration, mean (interferon alpha; time 2.00 h (first dose)): 0.00 pg/mL
- Mu-IFN-α plasma concentration, individual value (interferon alpha; time 2.00 h (first dose), listed as Isatoribine, 50 mg/kg): BQL^25 pg/mL; also recorded: BQL^75 pg/mL
- Mu-IFN-α plasma concentration, individual value (interferon alpha; time 3.00 h (first dose)): BQL^25 pg/mL
- Mu-IFN-α plasma concentration, mean (interferon alpha; time 3.00 h (first dose)): 0.00 pg/mL
- Mu-IFN-α plasma concentration, individual value (interferon alpha; time 4.00 h (first dose)): BQL^25 pg/mL
- Mu-IFN-α plasma concentration, mean (interferon alpha; time 4.00 h (first dose)): 0.00 pg/mL
- Mu-IFN-α plasma concentration, individual value (interferon alpha; time 4.03 h (second dose)): BQL^25 pg/mL
- Mu-IFN-α plasma concentration, mean (interferon alpha; time 4.03 h (second dose)): 0.00 pg/mL
- Mu-IFN-α plasma concentration, individual value (interferon alpha; time 4.08 h (second dose)): BQL^25 pg/mL
- Mu-IFN-α plasma concentration, mean (interferon alpha; time 4.08 h (second dose)): 0.00 pg/mL
- Mu-IFN-α plasma concentration, individual value (interferon alpha; time 4.25 h (second dose)): BQL^25 pg/mL
- Mu-IFN-α plasma concentration, mean (interferon alpha; time 4.25 h (second dose)): 0.00 pg/mL
- Mu-IFN-α plasma concentration, mean (interferon alpha; time 4.50 h (second dose)): 0.00 pg/mL
- Mu-IFN-α plasma concentration, individual value (interferon alpha; time 4.50 h (second dose), listed as Isatoribine, 50 mg/kg): BQL^50 pg/mL; also recorded: BQL^37.5 pg/mL
- Mu-IFN-α plasma concentration, individual value (interferon alpha; time 5.00 h (second dose)): BQL^50 pg/mL
- Mu-IFN-α plasma concentration, mean (interferon alpha; time 5.00 h (second dose)): 0.00 pg/mL
- Mu-IFN-α plasma concentration, individual value (interferon alpha; time 5.50 h (second dose)): BQL^37.5 pg/mL
- Mu-IFN-α plasma concentration, mean (interferon alpha; time 5.50 h (second dose)): 0.00 pg/mL
- Mu-IFN-α plasma concentration, mean (interferon alpha; time 6.00 h (second dose)): 0.00 pg/mL
- Mu-IFN-α plasma concentration, individual value (interferon alpha; time 6.00 h (second dose), listed as Isatoribine, 50 mg/kg): BQL^50 pg/mL; also recorded: BQL^41.3 pg/mL; also recorded: BQL^37.5 pg/mL
- Mu-IFN-α plasma concentration, individual value (interferon alpha; time 7.00 h (second dose)): BQL^50 pg/mL
- Mu-IFN-α plasma concentration, mean (interferon alpha; time 7.00 h (second dose)): 0.00 pg/mL
- Mu-IFN-α plasma concentration, mean (interferon alpha; time 8.00 h (second dose)): 0.00 pg/mL
- Mu-IFN-α plasma concentration, individual value (interferon alpha; time 8.00 h (second dose), listed as Isatoribine, 50 mg/kg): BQL^50 pg/mL; also recorded: BQL^25 pg/mL
- mice with detectable interferon in their plasma (interferon alpha; [2]): 4 of the 114
- proportion of mice exhibiting an interferon response (interferon alpha; [2]): 4%
- Emesis or loose stool ([1]; 12.5 mg/kg): Neg.
- GI lesions or irritation ([1]; 12.5 mg/kg): Neg.
- Emesis or loose stool ([1]; 25 mg/kg): Neg.
- GI lesions or irritation ([1]; 25 mg/kg): Neg.
- Emesis or loose stool ([1]; 50 mg/kg): +
- GI lesions or irritation ([1]; 50 mg/kg): Neg.
- Emesis or loose stool ([1]; 100 mg/kg): ++
- GI lesions or irritation ([1]; 100 mg/kg): Neg.
